Measurements from patent US8129369B2, “Antifungal compounds containing benzothiazinone, benzoxazinone or benzoxazolinone and process thereof” (Council of Scientific & Industrial Research;, priority 2008, dated 2012).
In brackets after ≈: the same amount, converted by molar mass.

Columns and labels:
C. albicans ATCC10231 = assay: MIC by broth micro-dilution method, C. albicans ATCC10231; assay type: cell-based, Candida albicans; settings: for MIC: Candida albicans, ATCC10231, MIC = concentration exhibiting 50% inhibition vs positive control
Description: (§1) The compounds of Formula 1 were tested for antifungal activity against various fungi including Candida albicans, Aspergillus niger and Fusarium proliferatum. In vitro evaluation of antifungal activity was performed by determining the minimum inhibitory concentration (MIC) following standard methods (CLSI: Reference method for broth dilution antifungal susceptibility testing of yeasts; Approved standard, second edition M27-A2, 2002; CLSI: Reference method for broth dilution antifungal susceptibility testing of filamentous fungi; Approved standard M38-A, 2002). Anti-fungal susceptibility testing of these anti-fungal compounds was done by broth dilution method using RPMI 1640 medium with MOPS buffer. Known anti-fungal agents like Fluconazole and Amphotericin-B were used as standards. End points were determined after 48 hours visually and by using spectrophotometer wherever necessary.

A. niger ATCC 16404 = assay: MIC by broth macro-dilution method, A. niger ATCC 16404; assay type: cell-based, Aspergillus niger; settings: 48 hours; for MIC: Aspergillus niger, ATCC16404, RPMI 1640 with MOPS, MIC = concentration exhibiting 80% inhibition vs positive growth control
Description: as §1
(§2) >16 μg/ml: The novel compounds of formula 1 are generally tested for concentration range from 0.03 μg/ml to the concentration till it was in solution (For e.g.: Back precipitation 128-32 μg/ml, Concentration for assay: 0.03 to 16 μg/ml).

C. krusei ATCC6258 = assay: MIC by broth micro-dilution method, C. krusei ATCC6258; assay type: cell-based; settings: for MIC: Pichia kudriavzevii, ATCC6258, MIC = concentration exhibiting 50% inhibition vs positive control
Description: as §1

C. tropicalis ATCC750 = assay: MIC by broth micro-dilution method, C. tropicalis ATCC750; assay type: cell-based; settings: for MIC: Candida tropicalis, ATCC750, MIC = concentration exhibiting 50% inhibition vs positive control
Description: as §1

C. albicans ATCC90028 = assay: MIC by broth micro-dilution method, C. albicans ATCC90028; assay type: cell-based, Candida albicans; settings: for MIC: Candida albicans, ATCC90028, MIC = concentration exhibiting 50% inhibition vs positive control
Description: as §1

C. albicans ATCC24433 = assay: MIC by broth micro-dilution method, C. albicans ATCC24433; assay type: cell-based, Candida albicans; settings: for MIC: Candida albicans, ATCC24433, MIC = concentration exhibiting 50% inhibition vs positive control
Description: as §1

C. glabrata ATCC90030 = assay: MIC by broth micro-dilution method, C. glabrata ATCC90030; assay type: cell-based; settings: for MIC: Nakaseomyces glabratus, ATCC90030, MIC = concentration exhibiting 50% inhibition vs positive control
Description: as §1

[1] = test system: F. proliferatum ATCC 10052; assay: MIC by broth macro-dilution method, F. proliferatum ATCC 10052; assay type: cell-based, Fusarium proliferatum; settings: 48 hours; for MIC: Fusarium proliferatum, ATCC10052, RPMI 1640 with MOPS, MIC = concentration exhibiting 80% inhibition vs positive growth control
Description: as §1, §2

C. albicans ATCC2091 = assay: MIC by broth micro-dilution method, C. albicans ATCC2091; assay type: cell-based, Candida albicans; settings: for MIC: Candida albicans, ATCC2091, MIC = concentration exhibiting 50% inhibition vs positive control
Description: as §1

C. albicans ATCC 24433 = assay: MIC by broth macro-dilution method, C. albicans ATCC 24433; assay type: cell-based, Candida albicans; settings: 48 hours; for MIC: Candida albicans, ATCC24433, RPMI 1640 with MOPS, MIC = concentration exhibiting 80% inhibition vs positive growth control
Description: as §1, §2

[2] = MIC = concentration exhibiting complete inhibition (Amphotericin B)
[3] = RPMI 1640 with MOPS, MIC = concentration exhibiting complete inhibition (Amphotericin B)

SMILES | MIC (A. niger ATCC 16404) [µg/mL] | MIC [1] [µg/mL] | MIC (C. albicans ATCC 24433) [µg/mL] | also measured
C[C@@H]1[C@H](O)[C@@H](C)/C=C/C=C/C=C/C=C/C=C/C=C/C=C/[C@H](O[C@@H]2O[C@H](C)[C@@H](O)[C@H](N)[C@@H]2O)C[C@@H]2O[C@](O)(C[C@@H](O)C[C@@H](O)[C@H](O)CC[C@@H](O)C[C@@H](O)CC(=O)O[C@H]1C)C[C@H](O)[C@H]2C(=O)O [Amphotericin B, reference compound] |  |  |  | MIC C. albicans ATCC10231 (C. albicans ATCC10231; [2]): 0.5 µg/mL (≈ 0.541 µM); MIC A. niger ATCC 16404 (A. niger ATCC 16404; [3]): 1 µg/mL (≈ 1.08 µM); MIC C. krusei ATCC6258 (C. krusei ATCC6258; [2]): 0.5 µg/mL (≈ 0.541 µM); MIC C. tropicalis ATCC750 (C. tropicalis ATCC750; [2]): 0.5 µg/mL (≈ 0.541 µM); MIC C. albicans ATCC90028 (C. albicans ATCC90028; [2]): 0.5 µg/mL (≈ 0.541 µM); MIC C. albicans ATCC24433 (C. albicans ATCC24433; [2]): 0.25 µg/mL (≈ 0.271 µM); MIC C. glabrata ATCC90030 (C. glabrata ATCC90030; [2]): 0.25 µg/mL (≈ 0.271 µM); MIC F. proliferatum ATCC 10052 [1, 3]: 2 µg/mL (≈ 2.16 µM); MIC C. albicans ATCC2091 (C. albicans ATCC2091; [2]): 0.5 µg/mL (≈ 0.541 µM); MIC C. albicans ATCC24433 (C. albicans ATCC 24433; [3]): 0.25 µg/mL (≈ 0.271 µM)
O=C1CSc2ccccc2N1CC(O)(Cn1cncn1)c1ccc(F)cc1F (stereo not shown) [Compound 1a, 4-[2-(2,4-Difluorophenyl)-2-hydroxy-3-[1,2,4]triazol-1-yl-propyl]-4H-benzo[1,4]thiazin-3-one] | > 64 | > 64 | 0.25 (≈ 0.621 µM) | MIC (C. albicans ATCC10231): 0.12 µg/mL (≈ 0.298 µM); MIC (C. krusei ATCC6258): 4 µg/mL (≈ 9.94 µM); MIC (C. tropicalis ATCC750): 0.5 µg/mL (≈ 1.24 µM); MIC (C. albicans ATCC90028): 0.03 µg/mL (≈ 0.0745 µM); MIC (C. albicans ATCC24433): 0.03 µg/mL (≈ 0.0745 µM); MIC (C. glabrata ATCC90030): 0.06 µg/mL (≈ 0.149 µM); MIC (C. albicans ATCC2091): 2 µg/mL (≈ 4.97 µM)
O=C1CSc2cc(Cl)ccc2N1CC(O)(Cn1cncn1)c1ccc(F)cc1F (stereo not shown) [Compound 1b, 7-Chloro-4-[2-(2,4-difluorophenyl)-2-hydroxy-3-[1,2,4]-triazol-1-yl-propyl]-4H-benzo[1,4]thiazin-3-one] | > 16 | > 16 | 1 (≈ 2.29 µM) | 
O=C1CSc2cc(Br)ccc2N1CC(O)(Cn1cncn1)c1ccc(F)cc1F (stereo not shown) [Compound 1c, 7-Bromo-4-[2-(2,4-difluorophenyl)-2-hydroxy-3-[1,2,4]triazol-1-yl-propyl]-4H-benzo[1,4]thiazin-3-one] | > 16 | > 16 | 1 (≈ 2.08 µM) | 
COc1ccc2c(c1)SCC(=O)N2CC(O)(Cn1cncn1)c1ccc(F)cc1F (stereo not shown) [Compound 1d, 4-[2-(2,4-Difluorophenyl)-2-hydroxy-3-[1,2,4]triazol-1-yl-propyl]-7-methoxy-4H-benzo[1,4]thiazin-3-one] | > 32 | > 32 | 4 (≈ 9.25 µM) | 
Cc1ccc2c(c1)SCC(=O)N2CC(O)(Cn1cncn1)c1ccc(F)cc1F (stereo not shown) [Compound 1e, 4-[2-(2,4-Difluorophenyl)-2-hydroxy-3-[1,2,4]triazol-1-yl-propyl]-7-methyl-4H-benzo[1,4]thiazin-3-one] | > 32 | > 32 | 2 (≈ 4.8 µM) | 
O=C1CSc2cc(Cl)ccc2N1CC(O)(Cn1cncn1)c1ccc(F)cc1 (stereo not shown) [Compound 1f, 7-Chloro-4-[2-(4-fluorophenyl)-2-hydroxy-3-[1,2,4]-triazol-1-yl-propyl]-4H-benzo[1,4]thiazin-3-one] | > 16 | > 16 | 2 (≈ 4.77 µM) | 
COc1ccc2c(c1)SCC(=O)N2CC(O)(Cn1cncn1)c1ccc(Br)cc1 (stereo not shown) [Compound 1g, 4-[2-(4-Bromophenyl)-2-hydroxy-3-[1,2,4]triazol-1-yl-propyl]-7-methoxy-4H-benzo[1,4]thiazin-3-one] | > 16 | > 16 | 2 (≈ 4.21 µM) | 
COc1ccc2c(c1)SCC(=O)N2CC(O)(Cn1cncn1)c1ccc(F)cc1 (stereo not shown) [Compound 1h, 4-[2-(4-Fluorophenyl)-2-hydroxy-3-[1,2,4]triazol-1-yl-propyl]-7-methoxy-4H-benzo[1,4]thiazin-3-one] | > 16 | > 16 | 8 (≈ 19.3 µM) | 
O=C1COc2ccccc2N1CC(O)(Cn1cncn1)c1ccc(F)cc1F (stereo not shown) [Compound 1i, 4-[2-(2,4-Difluorophenyl)-2-hydroxy-3-[1,2,4]-triazol-1-yl-propyl]-4H-benzo[1,4]oxazin-3-one] | > 64 | > 64 | 0.5 (≈ 1.29 µM) | MIC (C. albicans ATCC10231): 0.5 µg/mL (≈ 1.29 µM); MIC (C. krusei ATCC6258): 16 µg/mL (≈ 41.4 µM); MIC (C. tropicalis ATCC750): 2 µg/mL (≈ 5.18 µM); MIC (C. albicans ATCC90028): 0.12 µg/mL (≈ 0.311 µM); MIC (C. albicans ATCC24433): 0.12 µg/mL (≈ 0.311 µM); MIC (C. glabrata ATCC90030): 0.25 µg/mL (≈ 0.647 µM); MIC (C. albicans ATCC2091): 4 µg/mL (≈ 10.4 µM)
O=C1COc2ccc(Cl)cc2N1CC(O)(Cn1cncn1)c1ccc(F)cc1F (stereo not shown) [Compound 1j, 6-Chloro-4-[2-(2,4-difluorophenyl)-2-hydroxy-3-[1,2,4]triazol-1-yl-propyl]-4H-benzo[1,4]oxazin-3-one] | > 32 | > 32 | 8 (≈ 19 µM) | 
O=C1COc2ccc(Br)cc2N1CC(O)(Cn1cncn1)c1ccc(F)cc1F (stereo not shown) [Compound 1k, 6-Bromo-4-[2-(2,4-difluorophenyl)-2-hydroxy-3-[1,2,4]triazol-1-yl-propyl]-4H-benzo[1,4]oxazin-3-one] | > 32 | > 32 | 16 (≈ 34.4 µM) | 
O=C1COc2ccc([N+](=O)[O-])cc2N1CC(O)(Cn1cncn1)c1ccc(F)cc1F (stereo not shown) [Compound 1l, 4-[2-(2,4-Difluorophenyl)-2-hydroxy-3-[1,2,4]triazol-1-yl-propyl]-6-nitro-4H-benzo[1,4]oxazin-3-one] | > 32 | > 32 | 32 (≈ 74.2 µM) | 
CC(=O)c1ccc2c(c1)N(CC(O)(Cn1cncn1)c1ccc(F)cc1F)C(=O)CO2 (stereo not shown) [Compound 1m, 6-Acetyl-4-[2-(2,4-difluorophenyl)-2-hydroxy-3-[1,2,4]-triazol-1-yl-propyl]-4H-benzo[1,4]oxazin-3-one] | > 64 | > 64 | > 64 | 
O=C1COc2ccc(Cl)cc2N1CC(O)(Cn1cncn1)c1ccc(Br)cc1 (stereo not shown) [Compound 1n, 4-[2-(4-Bromophenyl)-2-hydroxy-3-[1,2,4]-triazol-1-yl-propyl]-6-chloro-4H-benzo[1,4]oxazin-3-one] | > 16 | > 16 | 4 (≈ 8.63 µM) | 
CC(=O)c1ccc2c(c1)N(CC(O)(Cn1cncn1)c1ccc(Br)cc1)C(=O)CO2 (stereo not shown) [Compound 1p, 6-Acetyl-4-[2-(4-bromophenyl)-2-hydroxy-3-[1,2,4]triazol-1-yl-propyl]-4H-benzo[1,4]oxazin-3-one] | > 32 | > 32 | 32 (≈ 67.9 µM) | 
O=c1oc2ccccc2n1CC(O)(Cn1cncn1)c1ccc(F)cc1F (stereo not shown) [Compound 1q, 3-[2-(2,4-Difluorophenyl)-2-hydroxy-3-[1,2,4]triazol-1-yl-propyl]-3H-benzoxazolin-2-one] | > 128 | > 128 | 2 (≈ 5.37 µM) | 
OC(Cn1cncn1)(Cn1cncn1)c1ccc(F)cc1F [Fluconazole, reference compound] | 128 (≈ 418 µM) | > 128 | 1 (≈ 3.27 µM) | MIC (C. albicans ATCC10231): 1 µg/mL (≈ 3.27 µM); MIC (C. krusei ATCC6258): 64 µg/mL (≈ 209 µM); MIC (C. tropicalis ATCC750): 2 µg/mL (≈ 6.53 µM); MIC (C. albicans ATCC90028): 0.5 µg/mL (≈ 1.63 µM); MIC (C. albicans ATCC24433): 0.25 µg/mL (≈ 0.816 µM); MIC (C. glabrata ATCC90030): 4 µg/mL (≈ 13.1 µM); MIC (C. albicans ATCC2091): 4 µg/mL (≈ 13.1 µM)
